One data set concerns acetylated α-tubulin. Put plainly: cell-based assay of MT-stabilization: acetylated α-tubulin in QBI293 cell lysates by ELISA. As to conditions: for fold induction at 1 µM: QBI293. As for the experimental part: (§1) All test compounds were evaluated in a previously described cell-based assay of MT-stabilization (see Kovalevich, J., et al. (2016) Characterization of Brain-Penetrant Pyrimidine-Containing Molecules with Differential Microtubule-Stabilizing Activities Developed as Potential Therapeutic Agents for Alzheimer's Disease and Related Tauopathies. J Pharmacol Exp Ther 357, 432-450, incorporated herein by reference), in which compound-dependent changes in tubulin polymerization and total tubulin levels were determined after 4 h of incubation of QBI293 cells with 1 and 10 μM compound via quantification of acetylated α-tubulin and total tubulin in cell lysates by ELISA.
(§2) Novel C6 nitrile- and alkyne-substituted triazolopyrimidine examples that have improved in vitro activity relative to previously described examples, with the general structure depicted in Formula I. The activity of the novel C6-nitrile substituted compounds were tested in a previously described cellular assay of MT-stabilization (Kovalevich, J., et al. (2016)). As summarized in Table 2. below, eighteen examples were synthesized and tested. In all cases, these compounds were confirmed to be active Class I triazolopyrimidines. […] Table 2 provides fold-changes in acetylated α-tubulin and total α-tubulin levels in QB1293 cells after 4 h incubation with test compounds at either 1 or 10 μM. Data are expressed as the fold-change relative to vehicle-treated cells. *p<0.05 and **p<0.01 by one-way ANOVA.
(§3) Compounds produced according to the preceding synthetic schemes were for microtubule stabilization. Fold-changes in acetylated α-tubulin (AcTub) and α-tubulin (α-Tub) levels in QB1293 cells after 4 h incubation with test compounds at either 1 or 10 μM. Reported values for AcTub and α-Tub represent the fold-change over control (DMSO)-treated cells (*p<0.05 and **p<0.01 by one-way ANOVA); numbers in parentheses represent the fold-change of AcTub over positive control-treated cells (i.e., 100 nM of cevipabulin). Changes of +/−15% of control are deemed to be within the day-to-day assay variability and non-significant.

Another data set deals with total α-tubulin. Put plainly: cell-based assay of MT-stabilization: total α-tubulin in QBI293 cell lysates by ELISA. As to conditions: QB1293 cells. As for the experimental part:
as §1, §2, §3

A further data set concerns MTs. As to conditions: versus vincristine, taxol, colchicine; cited from earlier work.
Data set [1] is described as follows: Plasma and brain compound determinations (LC-MS/MS). The format is in vivo. As to conditions: CD1 mice, 2.5 mg/kg each, one hour after dosing; for concentration at 1 h / Kp at 1 h: CD1, mouse, 2.5 mg/kg. The method, then: CD1 mice (n=3) were dosed concurrently with CNDR-51990 and CNDR-51993 (representing a 1:1 mixture of two diastereoisomers, 52017 (67) and 52016 (68)) at 2.5 mg/kg each). One hour after dosing, mice were euthanized and blood collected, followed by perfusion with saline. Mouse brains were homogenized in 10 mM ammonium acetate, pH 5.7 (1:2; w/v) using a handheld sonic homogenizer. Mouse plasma was obtained from blood that was collected into a 1.5 ml tube containing 0.5M EDTA solution and which was centrifuged for 10 minutes at 4500 g at 4° C. Aliquots (50 μl) of brain homogenates or plasma were mixed with 0.2 ml of acetonitrile, centrifuged at 15,000×g, and the resulting supernatant was used for subsequent LC-MS/MS analysis. The LC-MS/MS analysis was conducted by Inotiv, Inc., utilizing methods essentially as previously described (Lou et al., J. Med. Chem. 57:6116-27, 2014).

Another data set can be described thus: B/P of Table 4. The conditions noted are these: in vivo.
[2] abbreviates: QB1293 cells, 4 h incubation, 1 μM compound, relative to vehicle-treated cells, *p<0.05, **p<0.01, read-out: AcTub l μM (fold-change in acetylated α-tubulin).
Setting [3] is: QBI293, 4 h, 4 h incubation, 1 μM compound, relative to vehicle-treated cells, read-out: α-Tub 1 μM (fold-change in total α-tubulin).
Where [4] appears, read: QBI293, 4 h, 4 h incubation, 10 μM compound, relative to vehicle-treated cells, read-out: α-Tub 10 μM (fold-change in total α-tubulin).
Setting [5] is: dosed concurrently, individual animals 1-3, listed as 51990 (70).
[6] abbreviates: Table 4, QB1293 cells, 4 h, 1 μM, *p<0.05, **p<0.01, read-out: AcTub 1 μM (fold-change over control (DMSO)-treated cells).
[7] abbreviates: QBI293, 4 h, Table 4, 4 h, 1 μM, read-out: α-Tub l μM (fold-change over control (DMSO)-treated cells).
The mark [8] stands for this setting: QBI293, 4 h, Table 4, 4 h, 10 μM, read-out: α-Tub 10 μM (fold-change over control (DMSO)-treated cells).

“And” between values parts separate entries of the source, which are not always exact repeats. Identical values can stand only once. Counter-ions that a name gives are not always drawn. Like-named read-outs stand apart in the source and are kept apart here.

“4-(5-chloro-7-(piperidin-1-yl)-[1,2,4]triazolo[1,5-a]pyrimidin-6-yl)-3,5-difluorobenzonitrile [Compound 74]” registered a Class with acetylated α-tubulin (Table 2, triazolopyrimidine MT-activity class) of 1. Further, the “α-Tub 1 μM (fold-change in total α-tubulin)” value in the data set with total α-tubulin (4 h incubation, 1 μM compound, relative to vehicle-treated cells) is 0.98 +/− 0.02 fold-change. In addition, the “α-Tub 10 μM (fold-change in total α-tubulin)” value in the data set with total α-tubulin (4 h incubation, 10 μM compound, relative to vehicle-treated cells) is on record as 0.95 +/− 0.03 fold-change.
On to `CNCCCOc1cc(F)c(-c2c(Cl)nc3ncnn3c2N[C@@H](C)C(F)(F)F)c(F)c1` [Cevipabulin], for which, in the data set with MTs, the “competition for binding to MTs” value was “competes with vincristine but not taxol or colchicine”.
Take `CC(C)[C@@H](Nc1c(-c2c(F)cc(C#N)cc2F)c(Cl)nc2ncnn12)C(F)(F)F` [Compound 62, (R)-4-(5-chloro-7-((1,1,1-trifluoro-3-methylbutan-2-yl)amino)-[1,2,4]triazolo[1,5-a]pyrimidin-6-yl)-3,5-difluorobenzonitrile]: the figures for the fold induction at 1 µM with acetylated α-tubulin (setting [2]) and in the data set on total α-tubulin (setting [3]) were 0.99 ± 0.06 and 1.02, respectively. Also, in the data set with total α-tubulin (setting [4]), the fold induction at 10 µM came out at 1.01.
For `CC(C)[C@@H](C)Nc1c(-c2ccc(C#N)cc2F)c(Cl)nc2ncnn12` [Compound 67, (R)-4-(5-chloro-7-((3-methylbutan-2-yl)amino)-[1,2,4]triazolo[1,5-a]pyrimidin-6-yl)-3-fluorobenzonitrile], the “AcTub l μM (fold-change in acetylated α-tubulin)” value with acetylated α-tubulin (QB1293 cells, 4 h incubation, 1 μM compound, relative to vehicle-treated cells, *p<0.05, **p<0.01, listed as 52017 (67)) is 2.79 +/− 1.11 fold-change. Further, in the data set on total α-tubulin (setting [3]), the fold induction at 1 µM turned out to be 0.99. The fold induction at 10 µM in the data set on total α-tubulin (setting [4]) was 0.93.
In the case of `C[C@@H](Nc1c(-c2ccc(C#N)cc2F)c(Cl)nc2ncnn12)C(C)(C)C` [Compound 70, (R)-4-(5-Chloro-7-((3,3-dimethylbutan-2-yl)amino)-[1,2,4]triazolo[1,5-a]pyrimidin-6-yl)-3-fluorobenzonitrile], the concentration at 1 h in data set [1] (brain, dosed concurrently, individual animals 1-3, read-out: Brain Concentration) stood at 158 ng/g; in data set [1] (brain, dosed concurrently, mean, n=3, read-out: Brain Concentration, Mean), 183 ng/g; in data set [1] (plasma, dosed concurrently, individual animals 1-3, read-out: Plasma Concentration), 175 ng/mL; in data set [1] (plasma, dosed concurrently, mean, n=3, read-out: Plasma Concentration, Mean), 151 ng/mL. Further, the Kp at 1 h in data set [1] (brain, individual animals 1-3, read-out: Brain/Plasma) was determined as 0.9; in data set [1] (brain, mean, n=3, read-out: Brain/Plasma, Mean), 1.21. Besides, the “Brain Concentration” value in data set [1] (setting [5]) is 186 ng/g and 206 ng/g. Further, in data set [1] (setting [5]), the “Plasma Concentration” value is 133 ng/mL and 146 ng/mL. Moreover, the Brain/Plasma in data set [1] (individual animals 1-3, listed as 51990 (70)) was 1.40 and 1.41. Besides, the “AcTub 10 μM (fold-change in acetylated α-tubulin)” value with acetylated α-tubulin (QB1293 cells, 4 h incubation, 10 μM compound, relative to vehicle-treated cells, *p<0.05, **p<0.01) is listed as 7.67 ± 0.70 fold-change. Further, the fold induction at 1 µM in the data set with total α-tubulin (setting [3]) stood at 0.86. Besides, the fold induction at 10 µM in the data set with total α-tubulin (setting [4]) is 0.93.
`N#Cc1cc(F)c(-c2c(Cl)nc3ncnn3c2N2CCCCC2)c(F)c1` [Compound 73]: the fold induction at 1 µM in the data set with acetylated α-tubulin (setting [2]) and in the data set with total α-tubulin (setting [3]) was 1 each time. Moreover, the fold induction at 10 µM in the data set on total α-tubulin (setting [4]) is 1.07.
In the case of `C[C@@H](Nc1c(-c2c(F)cc(C#CCN(C)C)cc2F)c(Cl)nc2ncnn12)C(C)(C)C` [TAL-555, (R)-5-chloro-6-(4-(3-(dimethylamino)prop-1-yn-1-yl)-2,6-difluorophenyl)-N-(3,3-dimethylbutan-2-yl)-[1,2,4]triazolo[1,5-a]pyrimidin-7-amine], the fold induction at 1 µM was found to be 1.36 in the data set with acetylated α-tubulin (setting [6]) and 1 in the data set on total α-tubulin (QBI293, Table 4, 4 h, 1 μM, read-out: α-Tub l μM (fold-change over control (DMSO)-treated cells)). The fold induction at 10 µM with total α-tubulin (QBI293, Table 4, 4 h, 10 μM, read-out: α-Tub 10 μM (fold-change over control (DMSO)-treated cells)) is 0.84.
For the compound `C[C@@H](Nc1c(-c2c(F)cc(C#CCCN)cc2F)c(Cl)nc2ncnn12)C(C)(C)C` [TAL-580, (R)-6-(4-(4-aminobut-1-yn-1-yl)-2,6-difluorophenyl)-5-chloro-N-(3,3-dimethylbutan-2-yl)-[1,2,4]triazolo[1,5-a]pyrimidin-7-amine hydrochloride], the Kp in “B/P of Table 4” was 1.04. Besides, the fold induction at 1 µM in the data set on total α-tubulin (setting [7]) was 0.96. The fold induction at 10 µM in the data set with total α-tubulin (setting [8]) was 0.91.
Consider `CC(C)[C@@H](C)Nc1c(-c2c(F)cc(C#CCCO)cc2F)c(Cl)nc2ncnn12` [TAL-598, (R)-4-(4-(5-chloro-7-((3-methylbutan-2-yl)amino)-[1,2,4]triazolo[1,5-a]pyrimidin-6-yl)-3,5-difluorophenyl)but-3-yn-1-ol], for which the Kp in “B/P of Table 4” worked out at 0.44. Further, the fold induction at 1 µM in the data set with total α-tubulin (setting [7]) turned out to be 0.92.
`CC(C)[C@@H](C)Nc1c(-c2c(F)cc(C#CCCCO)cc2F)c(Cl)nc2ncnn12` [TAL-599, (R)-5-(4-(5-chloro-7-((3-methylbutan-2-yl)amino)-[1,2,4]triazolo[1,5-a]pyrimidin-6-yl)-3,5-difluorophenyl)pent-4-yn-1-ol]: the fold induction at 1 µM worked out at 2.6 in the data set with acetylated α-tubulin (setting [6]) and 1 in the data set with total α-tubulin (setting [7]).
As to `C[C@@H](Nc1c(-c2c(F)cc(C#CCCO)cc2F)c(Cl)nc2ncnn12)C(C)(C)C` [TAL-600, (R)-4-(4-(5-chloro-7-((3,3-dimethylbutan-2-yl)amino)-[1,2,4]triazolo[1,5-a]pyrimidin-6-yl)-3,5-difluorophenyl)but-3-yn-1-ol], the Kp in “B/P of Table 4” was 0.47. Further, the fold induction at 1 µM with total α-tubulin (setting [7]) was 0.98. Further, the fold induction at 10 µM in the data set on total α-tubulin (setting [8]) is 0.98.
As to `C[C@H](Nc1c(-c2c(F)cc(I)cc2F)c(Cl)nc2ncnn12)C(F)(F)F` [TAL-640], the fold induction at 1 µM was 1.9 with acetylated α-tubulin (setting [6]) and 1.01 in the data set on total α-tubulin (setting [7]). For the same compound, the fold induction at 10 µM with total α-tubulin (setting [8]) turned out to be 0.93.
As to `[2H]C([2H])(O)CC#Cc1cc(F)c(-c2c(Cl)nc3ncnn3c2N[C@H](C)C(C)(C)C)c(F)c1` [TAL-651, (R)-4-(4-(5-chloro-7-((3,3-dimethylbutan-2-yl)amino)-[1,2,4]triazolo[1,5-a]pyrimidin-6-yl)-3,5-difluorophenyl)but-3-yn-1,1-d2-1-ol], the Kp in “B/P of Table 4” came to 0.46. The fold induction at 1 µM with total α-tubulin (setting [7]) was found to be 1.02. Also, in the data set with total α-tubulin (setting [8]), the fold induction at 10 µM came out at 1.01.
As to `Cc1nc2nc(Cl)c(-c3c(F)cc(C#CCCO)cc3F)c(N(C)[C@H](C)C(C)C)n2n1` [TAL-665, (R)-4-(4-(5-chloro-2-methyl-7-(methyl(3-methylbutan-2-yl)amino)-[1,2,4]triazolo[1,5-a]pyrimidin-6-yl)-3,5-difluorophenyl)but-3-yn-1-ol], the fold induction at 1 µM in the data set on acetylated α-tubulin (setting [6]) was 1.05; in the data set on total α-tubulin (setting [7]) it was 0.91. In addition, in the data set with total α-tubulin (setting [8]), the fold induction at 10 µM amounted to 0.96.

These data come from patent US20230167121A1, “SUBSTITUTED {1,2,4,} TRIAZOLO{1,5-A} PYRIMIDINE COMPOUNDS AND USE IN STABILIZING MICROTUBULES” (THE TRUSTEES OF THE UNIVERSITY OF PENNSYLVANIA, priority 2020, published 2023).
